The values below are quoted from earlier work in patent US20030008014A1, “Truncated apolipoprotein B-containing lipoprotein particles for delivery of compounds to tissues or cells” (priority 2001, published 2003).

The test system of one series is breast tumor xenografts. Particulars: two 10 mg/kg injections on days 1 and 4.

In the case of `CC(C)CCC[C@@H](C)[C@H]1CC[C@H]2[C@@H]3CC=C4C[C@@H](O)CC[C@]4(C)[C@H]3CC[C@]12C` [Free cholesterol, cholesterol], the “solubility in phospholipid disks” value is recorded as around 30 mole %.

Regarding `CC(=O)O[C@H]1C(=O)[C@@]2(C)[C@H]([C@H](OC(=O)c3ccccc3)[C@]3(O)C[C@H](OC(=O)[C@H](O)[C@@H](NC(=O)c4ccccc4)c4ccccc4)C(C)=C1C3(C)C)[C@]1(OC(C)=O)CO[C@@H]1C[C@@H]2O` [paclitaxel], the “inhibition of tumor growth” value in the series with breast tumor xenografts is on record as “maximal inhibition of tumor growth”.
